Laboratory results reported in ChEMBL document CHEMBL5291721, “A preclinical secondary pharmacology resource illuminates target-adverse drug reaction associations of marketed drugs” (Nat Commun, 2023).

Key:
[1] = target: Gamma-aminobutyric acid receptor subunit alpha-1/alpha-2/beta-2/gamma-2 (Homo sapiens, UniProt P14867+P18507+P47869+P47870); assay type: functional, cell-based
[2] = target: Neuronal acetylcholine receptor subunit alpha-4 (Homo sapiens, UniProt P43681)
[3] = target: T1, Beta-2 adrenergic receptor (Homo sapiens, UniProt P07550); assay type: functional, cell-based
D(3) dopamine receptor = D(3) dopamine receptor (Homo sapiens, UniProt P35462)
Mu-type opioid receptor [4] = target: T2, Mu-type opioid receptor (Homo sapiens, UniProt P35372); experiment: biochemical; assay type: functional
[5] = target: T3, 5-hydroxytryptamine receptor 2B (Homo sapiens, UniProt P41595); assay type: functional, cell-based
D(1A) dopamine receptor [6] = target: T4, D(1A) dopamine receptor (Homo sapiens, UniProt P21728); assay type: functional, cell-based
[7] = target: T5, Gamma-aminobutyric acid receptor subunit alpha-1 (Rattus norvegicus, UniProt P62813); assay type: functional
[8] = target: T6, Alpha-1A adrenergic receptor (Homo sapiens, UniProt P35348); assay type: functional, cell-based
T6 sequence (P35348 whole entry): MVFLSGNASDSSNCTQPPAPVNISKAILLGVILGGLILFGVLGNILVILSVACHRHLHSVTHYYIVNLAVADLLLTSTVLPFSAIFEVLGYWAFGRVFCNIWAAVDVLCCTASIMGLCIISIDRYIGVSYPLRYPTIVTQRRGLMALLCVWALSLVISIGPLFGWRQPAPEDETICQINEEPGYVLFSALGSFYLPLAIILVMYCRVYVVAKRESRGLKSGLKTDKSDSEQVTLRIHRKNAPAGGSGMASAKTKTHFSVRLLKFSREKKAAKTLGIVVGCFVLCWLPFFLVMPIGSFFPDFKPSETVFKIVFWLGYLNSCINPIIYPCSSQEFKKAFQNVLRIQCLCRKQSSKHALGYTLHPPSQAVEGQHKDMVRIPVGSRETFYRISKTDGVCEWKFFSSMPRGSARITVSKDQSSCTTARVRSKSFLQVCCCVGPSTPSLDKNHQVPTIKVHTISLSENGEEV

Cannabinoid receptor 1 [9] = target: T7, Cannabinoid receptor 1 (Homo sapiens, UniProt P21554); assay type: functional, cell-based
[10] = target: T6, Alpha-1A adrenergic receptor; assay type: functional, cell-based; remark: listed apart in the source
Histamine H3 receptor = Histamine H3 receptor (Homo sapiens, UniProt Q9Y5N1)
[11] = target: Delta-type opioid receptor (Homo sapiens, UniProt P41143)
[12] = target: T6, Alpha-1A adrenergic receptor
[13] = target: Kappa-type opioid receptor (Homo sapiens, UniProt P41145)
[14] = target: T3, 5-hydroxytryptamine receptor 2B
Mu-type opioid receptor [15] = target: T2, Mu-type opioid receptor
[16] = target: T8, Amine oxidase [flavin-containing] A (Homo sapiens, UniProt P21397); assay type: functional
T8 sequence (P21397 whole entry): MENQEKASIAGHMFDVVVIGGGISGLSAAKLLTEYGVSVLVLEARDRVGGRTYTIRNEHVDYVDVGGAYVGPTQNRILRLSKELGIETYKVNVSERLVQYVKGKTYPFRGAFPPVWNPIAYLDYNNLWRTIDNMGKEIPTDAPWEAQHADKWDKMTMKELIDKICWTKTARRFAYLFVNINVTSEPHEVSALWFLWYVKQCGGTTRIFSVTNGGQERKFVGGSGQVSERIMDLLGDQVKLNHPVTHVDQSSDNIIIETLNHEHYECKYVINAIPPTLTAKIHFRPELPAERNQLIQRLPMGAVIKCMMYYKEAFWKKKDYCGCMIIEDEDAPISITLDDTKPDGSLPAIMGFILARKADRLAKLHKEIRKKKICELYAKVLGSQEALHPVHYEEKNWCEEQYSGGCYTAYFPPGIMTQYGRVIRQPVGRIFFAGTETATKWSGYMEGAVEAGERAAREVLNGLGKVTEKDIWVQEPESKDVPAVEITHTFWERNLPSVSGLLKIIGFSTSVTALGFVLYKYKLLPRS

[17] = target: Glutamate receptor ionotropic, NMDA 1 (Rattus norvegicus, UniProt P35439)
D(1A) dopamine receptor [18] = target: T4, D(1A) dopamine receptor; assay type: functional, cell-based; remark: listed apart in the source
[19] = target: T9, 5-hydroxytryptamine receptor 1A (Homo sapiens, UniProt P08908); assay type: functional, cell-based
T9 sequence (P08908 whole entry): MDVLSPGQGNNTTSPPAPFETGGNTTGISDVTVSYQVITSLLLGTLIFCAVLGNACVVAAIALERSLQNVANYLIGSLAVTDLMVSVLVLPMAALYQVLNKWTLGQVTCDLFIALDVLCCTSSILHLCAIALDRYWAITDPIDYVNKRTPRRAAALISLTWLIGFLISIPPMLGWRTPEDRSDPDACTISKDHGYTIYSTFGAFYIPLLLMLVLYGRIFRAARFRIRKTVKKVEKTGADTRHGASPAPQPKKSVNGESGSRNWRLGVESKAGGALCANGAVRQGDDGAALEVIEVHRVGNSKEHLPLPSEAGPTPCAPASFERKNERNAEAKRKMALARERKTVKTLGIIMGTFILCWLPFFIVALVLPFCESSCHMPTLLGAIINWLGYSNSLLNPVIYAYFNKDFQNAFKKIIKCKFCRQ

[20] = target: Voltage-dependent L-type calcium channel subunit alpha-1C (Rattus norvegicus, UniProt P22002); assay type: functional
[21] = target: T10, 5-hydroxytryptamine receptor 2C (Homo sapiens, UniProt P28335)
T10 sequence (P28335 whole entry): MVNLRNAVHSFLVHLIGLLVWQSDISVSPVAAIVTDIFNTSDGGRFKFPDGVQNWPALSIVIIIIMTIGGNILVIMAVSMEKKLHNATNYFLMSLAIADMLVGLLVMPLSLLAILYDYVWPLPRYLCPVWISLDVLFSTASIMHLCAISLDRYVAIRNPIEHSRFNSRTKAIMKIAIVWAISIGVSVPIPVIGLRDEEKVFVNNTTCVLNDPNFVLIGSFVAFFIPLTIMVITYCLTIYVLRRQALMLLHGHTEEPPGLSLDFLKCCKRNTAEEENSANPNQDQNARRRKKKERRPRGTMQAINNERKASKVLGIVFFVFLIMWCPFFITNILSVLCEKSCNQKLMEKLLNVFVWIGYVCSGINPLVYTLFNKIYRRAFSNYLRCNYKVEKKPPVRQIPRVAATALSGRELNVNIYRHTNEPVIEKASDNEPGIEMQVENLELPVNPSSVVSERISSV

[22] = target: T9, 5-hydroxytryptamine receptor 1A; assay type: functional, cell-based; remark: listed apart in the source
Histamine H2 receptor = Histamine H2 receptor (Homo sapiens, UniProt P25021); assay type: functional, cell-based
[23] = target: T1, Beta-2 adrenergic receptor
Cannabinoid receptor 1 [24] = target: T7, Cannabinoid receptor 1
[25] = target: T3, 5-hydroxytryptamine receptor 2B; assay type: functional, cell-based; remark: listed apart in the source
[26] = target: T5, Gamma-aminobutyric acid receptor subunit alpha-1
Also: assay procedure not described here.

T3 sequence (P41595 whole entry): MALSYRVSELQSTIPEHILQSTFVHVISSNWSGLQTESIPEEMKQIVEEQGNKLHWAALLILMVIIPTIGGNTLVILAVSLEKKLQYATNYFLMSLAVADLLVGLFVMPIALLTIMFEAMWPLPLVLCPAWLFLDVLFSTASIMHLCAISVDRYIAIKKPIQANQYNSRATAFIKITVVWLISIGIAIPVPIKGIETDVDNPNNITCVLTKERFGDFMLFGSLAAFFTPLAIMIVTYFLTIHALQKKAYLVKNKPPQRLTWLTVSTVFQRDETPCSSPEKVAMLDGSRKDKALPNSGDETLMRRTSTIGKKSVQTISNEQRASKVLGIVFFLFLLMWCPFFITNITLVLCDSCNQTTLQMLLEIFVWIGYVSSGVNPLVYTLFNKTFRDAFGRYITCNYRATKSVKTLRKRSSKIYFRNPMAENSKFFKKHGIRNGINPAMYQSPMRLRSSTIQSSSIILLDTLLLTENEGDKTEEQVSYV
T7 sequence (P21554 whole entry): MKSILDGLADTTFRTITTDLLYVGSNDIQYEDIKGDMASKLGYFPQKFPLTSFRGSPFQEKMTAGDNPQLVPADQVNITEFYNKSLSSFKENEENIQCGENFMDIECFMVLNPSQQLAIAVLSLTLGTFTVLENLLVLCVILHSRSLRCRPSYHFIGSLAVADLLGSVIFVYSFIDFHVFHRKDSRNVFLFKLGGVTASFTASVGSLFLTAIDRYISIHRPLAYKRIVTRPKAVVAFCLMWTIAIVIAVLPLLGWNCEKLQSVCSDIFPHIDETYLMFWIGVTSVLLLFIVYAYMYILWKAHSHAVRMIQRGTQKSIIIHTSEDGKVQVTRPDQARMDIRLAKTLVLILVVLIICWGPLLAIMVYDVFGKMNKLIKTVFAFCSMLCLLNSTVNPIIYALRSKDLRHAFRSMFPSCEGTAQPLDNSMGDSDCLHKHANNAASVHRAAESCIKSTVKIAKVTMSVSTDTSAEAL
T5 sequence (P62813 whole entry): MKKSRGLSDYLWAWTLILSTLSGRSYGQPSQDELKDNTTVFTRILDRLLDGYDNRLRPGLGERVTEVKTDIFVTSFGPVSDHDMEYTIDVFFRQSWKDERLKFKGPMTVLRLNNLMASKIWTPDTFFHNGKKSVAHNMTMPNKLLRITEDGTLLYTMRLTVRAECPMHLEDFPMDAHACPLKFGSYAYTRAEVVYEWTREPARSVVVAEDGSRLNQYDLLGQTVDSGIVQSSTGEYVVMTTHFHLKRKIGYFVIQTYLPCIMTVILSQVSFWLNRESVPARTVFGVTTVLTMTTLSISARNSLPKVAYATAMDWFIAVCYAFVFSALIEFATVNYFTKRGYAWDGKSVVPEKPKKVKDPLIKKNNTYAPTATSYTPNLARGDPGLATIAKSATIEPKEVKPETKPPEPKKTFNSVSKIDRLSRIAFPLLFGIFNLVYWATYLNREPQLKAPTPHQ
T4 sequence (P21728 whole entry): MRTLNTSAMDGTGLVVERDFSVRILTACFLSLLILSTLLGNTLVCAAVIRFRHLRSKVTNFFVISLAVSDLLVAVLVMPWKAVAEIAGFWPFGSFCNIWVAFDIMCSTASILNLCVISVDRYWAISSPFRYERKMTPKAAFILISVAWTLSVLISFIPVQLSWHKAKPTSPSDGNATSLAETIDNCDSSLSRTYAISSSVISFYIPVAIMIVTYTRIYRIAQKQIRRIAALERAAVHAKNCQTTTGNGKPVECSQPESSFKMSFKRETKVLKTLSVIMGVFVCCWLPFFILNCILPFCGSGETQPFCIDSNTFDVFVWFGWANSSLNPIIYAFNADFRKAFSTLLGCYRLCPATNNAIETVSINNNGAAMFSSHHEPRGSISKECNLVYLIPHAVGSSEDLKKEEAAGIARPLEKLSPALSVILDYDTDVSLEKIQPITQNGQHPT
T2 sequence (P35372 whole entry): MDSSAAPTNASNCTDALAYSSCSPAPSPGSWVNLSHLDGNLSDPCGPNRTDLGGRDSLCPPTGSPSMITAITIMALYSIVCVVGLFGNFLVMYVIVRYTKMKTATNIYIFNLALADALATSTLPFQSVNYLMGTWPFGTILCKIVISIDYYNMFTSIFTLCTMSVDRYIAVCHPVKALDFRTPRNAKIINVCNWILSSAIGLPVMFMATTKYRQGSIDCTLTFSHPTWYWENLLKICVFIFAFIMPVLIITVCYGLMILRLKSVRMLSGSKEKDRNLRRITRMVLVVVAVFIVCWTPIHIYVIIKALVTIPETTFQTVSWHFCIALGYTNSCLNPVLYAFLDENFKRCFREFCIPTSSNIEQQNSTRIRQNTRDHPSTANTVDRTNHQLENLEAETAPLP
T1 sequence (P07550 whole entry): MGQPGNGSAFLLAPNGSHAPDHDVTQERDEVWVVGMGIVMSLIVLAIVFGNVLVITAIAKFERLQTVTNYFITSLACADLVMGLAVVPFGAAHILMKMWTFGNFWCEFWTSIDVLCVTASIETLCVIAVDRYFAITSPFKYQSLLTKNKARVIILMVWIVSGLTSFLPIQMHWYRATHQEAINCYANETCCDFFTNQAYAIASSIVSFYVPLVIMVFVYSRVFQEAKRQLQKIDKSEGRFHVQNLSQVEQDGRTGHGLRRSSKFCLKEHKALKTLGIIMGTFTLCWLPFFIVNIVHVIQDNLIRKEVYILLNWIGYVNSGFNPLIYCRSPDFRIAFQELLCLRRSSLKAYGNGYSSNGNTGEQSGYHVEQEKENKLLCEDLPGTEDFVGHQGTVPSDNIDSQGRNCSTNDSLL
Chain of Histamine H2 receptor (P25021 whole entry): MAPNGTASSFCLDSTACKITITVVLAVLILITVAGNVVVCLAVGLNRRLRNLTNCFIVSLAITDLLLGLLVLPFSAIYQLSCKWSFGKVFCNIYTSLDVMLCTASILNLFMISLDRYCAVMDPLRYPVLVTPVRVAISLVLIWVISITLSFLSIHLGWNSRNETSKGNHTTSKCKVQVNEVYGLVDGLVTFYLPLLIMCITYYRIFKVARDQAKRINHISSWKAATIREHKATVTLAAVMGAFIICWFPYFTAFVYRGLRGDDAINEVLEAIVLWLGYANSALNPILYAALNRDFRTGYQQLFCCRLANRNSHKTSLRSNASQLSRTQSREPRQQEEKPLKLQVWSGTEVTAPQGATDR
Chain of Histamine H3 receptor (Q9Y5N1 whole entry): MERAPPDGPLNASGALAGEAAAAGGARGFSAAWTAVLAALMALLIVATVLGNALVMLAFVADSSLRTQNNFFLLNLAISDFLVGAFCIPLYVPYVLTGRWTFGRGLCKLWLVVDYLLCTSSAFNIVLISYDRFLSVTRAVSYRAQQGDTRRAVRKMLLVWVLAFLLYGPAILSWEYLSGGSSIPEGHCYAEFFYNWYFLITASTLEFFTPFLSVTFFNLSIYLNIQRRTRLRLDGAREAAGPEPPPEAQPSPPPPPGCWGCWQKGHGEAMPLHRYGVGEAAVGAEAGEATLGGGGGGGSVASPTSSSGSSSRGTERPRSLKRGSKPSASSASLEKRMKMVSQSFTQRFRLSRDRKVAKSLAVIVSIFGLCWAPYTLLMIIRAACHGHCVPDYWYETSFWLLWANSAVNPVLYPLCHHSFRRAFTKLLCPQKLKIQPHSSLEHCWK
Chain of Kappa-type opioid receptor (P41145 whole entry): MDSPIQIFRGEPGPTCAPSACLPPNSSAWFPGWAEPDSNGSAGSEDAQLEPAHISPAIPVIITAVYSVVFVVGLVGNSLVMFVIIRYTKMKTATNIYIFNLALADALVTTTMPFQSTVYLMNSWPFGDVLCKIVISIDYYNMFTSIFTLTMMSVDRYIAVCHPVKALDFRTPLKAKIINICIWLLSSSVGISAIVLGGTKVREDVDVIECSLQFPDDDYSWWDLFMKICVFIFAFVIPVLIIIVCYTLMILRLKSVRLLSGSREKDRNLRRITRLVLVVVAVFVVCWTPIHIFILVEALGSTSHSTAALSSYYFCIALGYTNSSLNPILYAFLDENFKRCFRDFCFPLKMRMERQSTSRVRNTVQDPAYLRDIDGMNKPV
Chain of Neuronal acetylcholine receptor subunit alpha-4 (P43681 whole entry): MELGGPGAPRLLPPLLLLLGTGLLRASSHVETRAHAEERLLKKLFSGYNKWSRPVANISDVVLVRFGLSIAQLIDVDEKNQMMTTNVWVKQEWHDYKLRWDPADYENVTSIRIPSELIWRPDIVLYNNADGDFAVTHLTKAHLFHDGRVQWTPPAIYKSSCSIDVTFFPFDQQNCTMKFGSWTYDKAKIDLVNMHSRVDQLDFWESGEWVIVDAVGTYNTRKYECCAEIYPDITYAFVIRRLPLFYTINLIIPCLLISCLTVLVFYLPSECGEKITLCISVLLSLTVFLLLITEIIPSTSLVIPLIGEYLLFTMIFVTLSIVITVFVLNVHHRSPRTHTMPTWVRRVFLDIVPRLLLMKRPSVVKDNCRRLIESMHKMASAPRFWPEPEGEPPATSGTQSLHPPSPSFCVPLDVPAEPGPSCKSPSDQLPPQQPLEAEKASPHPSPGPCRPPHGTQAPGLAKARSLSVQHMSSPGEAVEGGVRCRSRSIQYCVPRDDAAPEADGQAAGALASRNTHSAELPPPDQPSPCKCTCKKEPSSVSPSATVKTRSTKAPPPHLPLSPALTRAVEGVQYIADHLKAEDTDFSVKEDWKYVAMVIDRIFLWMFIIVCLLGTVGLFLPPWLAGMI
Chain of D(3) dopamine receptor (P35462 whole entry): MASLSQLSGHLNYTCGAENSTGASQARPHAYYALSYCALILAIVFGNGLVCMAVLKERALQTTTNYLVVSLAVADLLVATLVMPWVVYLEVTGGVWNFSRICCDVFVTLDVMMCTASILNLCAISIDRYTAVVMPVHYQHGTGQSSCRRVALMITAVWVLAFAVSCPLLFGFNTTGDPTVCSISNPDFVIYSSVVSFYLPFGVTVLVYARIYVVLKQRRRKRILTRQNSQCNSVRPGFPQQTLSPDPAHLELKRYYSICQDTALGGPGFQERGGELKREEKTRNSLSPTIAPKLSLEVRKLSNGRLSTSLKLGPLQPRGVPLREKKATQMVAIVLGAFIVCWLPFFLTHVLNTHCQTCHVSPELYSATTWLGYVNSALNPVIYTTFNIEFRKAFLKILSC

SMILES: CN1[C@@H]2CC[C@H]1C[C@@H](OC(c1ccccc1)c1ccccc1)C2 [BENZTROPINE]
- AC50 [1]: > 30 µM
- AC50 [2]: > 30 µM
- AC50 [3]: > 30 µM
- AC50 (D(3) dopamine receptor): 2.83 µM
- AC50 (Mu-type opioid receptor [4]): 5.3 µM
- AC50 [5]: > 30 µM
- AC50 (D(1A) dopamine receptor [6]): > 30 µM
- AC50 [7]: > 30 µM
- AC50 [8]: > 30 µM
- AC50 (Cannabinoid receptor 1 [9]): > 30 µM
- AC50 [10]: 0.96 µM
- AC50 (Histamine H3 receptor): > 30 µM
- AC50 [11]: 11 µM
- AC50 [12]: 0.078 µM
- AC50 [13]: 0.993 µM
- AC50 [14]: 0.137 µM
- AC50 (Mu-type opioid receptor [15]): 6.26 µM
- AC50 [16]: > 30 µM
- AC50 [17]: > 10 µM
- AC50 (D(1A) dopamine receptor [18]): 21 µM
- AC50 [19]: > 30 µM
- AC50 [20]: > 10 µM
- AC50 [21]: 12.4 µM
- AC50 [22]: > 30 µM
- AC50 (Histamine H2 receptor): > 30 µM
- AC50 [23]: > 30 µM
- AC50 (Cannabinoid receptor 1 [24]): > 10 µM
- AC50 [25]: 2.6 µM
- AC50 [26]: > 10 µM
